The conditions of data set [1]: deionized water. An excerpt: Equal levels of each sample (circa 1.0 wt. % of methionine based on total feed weight) were introduced into a feed formula that was placed in a vessel and exposed to deionized water for an hour.
For data set [2] the following is noted: feed formula with circa 1.0 wt. % sample, contacted with deionized water. From the text: Equal levels of each sample (circa 1.0 wt. % based on total feed weight) were introduced into a feed formula that was placed in a vessel and contacted with deionized water.

Where two headings read alike, the source gives them in different places.

As for `CSCC[C@H](N)C(=O)O` [Uncoated methionine, methionine], the “percent loss of methionine” value is recorded as “about 15 wt. %” in data set [1] (after about 1 minute), “about 22 wt. %” in data set [1] (after about 5 minutes), “about 30 wt. %” in data set [1] (after about 15 minutes) and “about 43 wt. %” in data set [1] (after about 60 minutes). For the same molecule, the “LEACHING LOSS AFTER 30 MINUTES” value in data set [2] amounted to 40%.

These data come from patent US20060078598A1, “Animal feed containing an encapsulated ingredient” (CAN Technologies, Inc., priority 2002, published 2006).
